Experimental data taken from patent US11377418B2, “Compounds and methods for treating influenza” (Macau University of Science and Technology, priority 2020, dated 2022).
“Also recorded” adds a separate entry of the source. Where two headings read alike, the source gives them in different places.

Tests used:
influenza virus = assay: NF-κB signalling inhibition, effect on influenza virus titers (in vitro and in vivo)
[1] = test system: influenza A H1N1 (A/PR/8/34 virus); assay: cytopathic effect (CPE) inhibition assay in MDCK cells; type: cell-based
NF-κB activation = assay: NF-κB-driven luciferase reporter assay in TNF-α-induced HEK293 cells; type: cell-based, Human; details: luciferase activity, 20 ng/mL TNF-α, compound 100, 50, 25 or 12.5 μM, 24 h, FIGS. 1 to 4

With `CC(=O)Oc1ccccc1C(=O)O` [acetylsalicyclic acid (ASA), acetylsalicyclic acid] the “influenza virus titers (in words)” value (influenza virus) was “dramatic reduction of influenza virus titers”.

Work on `CC(=O)OC[C@H](Cc1ccccc1)NC(=O)[C@H](Cc1ccccc1)NC(=O)c1ccccc1` [Compound 1, (S)-2-((S)-2-benzamido-3-phenylpropanamido)-3-phenylpropyl acetate, reference compound] yielded an IC50 ([1]; Influenza A virus, MDCK, 48 h) of 74.3 µM.

In the case of `CC(C)(C)c1ccc(S(=O)(=O)/C=C/C#N)cc1` [Compound 11-7085], the “influenza virus titers (in words)” value (influenza virus) is reported as “dramatic reduction of influenza virus titers”.

`CC(=O)OC[C@H](Cc1ccc(F)cc1)NC(=O)[C@H](Cc1ccc(F)cc1)NC(=O)c1ccccc1` [Compound 6, (S)-2-((S)-2-benzamido-3-(4-fluorophenyl)propanamido)-3-(4-fluorophenyl)propyl acetate] was tested, and the “inhibition towards NF-κB activation (in words)” value (NF-κB activation) was “strongest inhibition effect; also recorded: strong inhibitory effect” and the IC50 ([1]; Influenza A virus, MDCK, 48 h) was 19.2 µM.

`CC(=O)OC[C@H](Cc1ccc(F)cc1)NC(=O)[C@H](Cc1ccccc1)NC(=O)c1ccccc1` [Compound 4, (S)-2-((S)-2-benzamido-3-phenylpropanamido)-3-(4-fluorophenyl)propyl acetate] was tested, and the IC50 ([1]; Influenza A virus, MDCK, 48 h) was 29.6 µM.

In the case of `O=C(N[C@@H](Cc1ccc(F)cc1)C(=O)N[C@H](CO)Cc1ccccc1)c1ccc(F)cc1` [Compound 13], the IC50 [1] is reported as 10.5 µM and the IC50 ([1]; Influenza A virus, MDCK, 48 h) is reported as < 14.3 µM.

With `CC(=O)OC[C@H](Cc1ccccc1)NC(=O)[C@H](Cc1ccccc1)NC(=O)c1ccc(F)cc1` [Compound 3, (S)-2-((S)-2-(4-fluorobenzamido)-3-phenylpropanamido)-3-phenylpropyl acetate] the IC50 ([1]; Influenza A virus, MDCK, 48 h) was 42.4 µM.

With `CC(=O)OC[C@H](Cc1ccccc1)NC(=O)[C@H](Cc1ccc(F)cc1)NC(=O)c1ccc(F)cc1` [Compound 5, (S)-2-((S)-2-(4-fluorobenzamido)-3-(4-fluorophenyl)propanamido)-3-phenylpropyl acetate] the IC50 ([1]; Influenza A virus, MDCK, 48 h) was 37.9 µM.

`O=C(N[C@@H](Cc1ccccc1)C(=O)N[C@H](CO)Cc1ccccc1)c1ccccc1` [Compound 9, N—((S)-1-(((S)-1-hydroxy-3-phenylpropan-2-yl)amino)-1-oxo-3-phenylpropan-2-yl)benzamide, reference compound] gave an IC50 ([1]; Influenza A virus, MDCK, 48 h) of 34 µM.

In the case of `O=C(N[C@@H](Cc1ccc(F)cc1)C(=O)N[C@H](CO)Cc1ccc(F)cc1)c1ccccc1` [Compound 14, N—((S)-3-(4-fluorophenyl)-1-(((S)-1-(4-fluorophenyl)-3-hydroxypropan-2-yl)amino)-1-oxopropan-2-yl)benzamide], the “inhibition towards NF-κB activation (in words)” value (NF-κB activation) is reported as “strongest inhibition effect; also recorded: strong inhibitory effect” and the IC50 ([1]; Influenza A virus, MDCK, 48 h) is reported as 19.7 µM.

`CC(=O)OC[C@H](Cc1ccc(F)cc1)NC(=O)[C@H](Cc1ccccc1)NC(=O)c1ccc(F)cc1` [Compound 7, (S)-2-((S)-2-(4-fluorobenzamido)-3-phenylpropanamido)-3-(4-fluorophenyl)propyl acetate] was tested, and the IC50 [1] was 13.5 µM and the IC50 ([1]; Influenza A virus, MDCK, 48 h) was < 14.3 µM.

`O=C(N[C@@H](Cc1ccccc1)C(=O)N[C@H](CO)Cc1ccc(F)cc1)c1ccc(F)cc1` [Compound 15, 4-fluoro-N—((S)-1-(((S)-1-(4-fluorophenyl)-3-hydroxypropan-2-yl)amino)-1-oxo-3-phenylpropan-2-yl)benzamide] showed an IC50 ([1]; Influenza A virus, MDCK, 48 h) of 38.7 µM.

`O=C(N[C@@H](Cc1ccccc1)C(=O)N[C@H](CO)Cc1ccccc1)c1ccc(F)cc1` [Compound 11, 4-fluoro-N—((S)-1-(((S)-1-hydroxy-3-phenylpropan-2-yl)amino)-1-oxo-3-phenylpropan-2-yl)benzamide] gave an IC50 ([1]; Influenza A virus, MDCK, 48 h) of 47 µM.

With `O=C(N[C@@H](Cc1ccc(F)cc1)C(=O)N[C@H](CO)Cc1ccccc1)c1ccccc1` [Compound 10, N—((S)-3-(4-fluorophenyl)-1-(((S)-1-hydroxy-3-phenylpropan-2-yl)amino)-1-oxopropan-2-yl)benzamide] the “inhibition towards NF-κB activation (in words)” value (NF-κB activation) was “potent inhibitory effect; also recorded: strong inhibitory effect; also recorded: excellent inhibitory effects”, the IC50 [1] was 14.3 µM and the “anti-influenza virus effect (in words)” value ([1]; CPE inhibition, MDCK cells, A/PR/8/34 (H1N1)) was “potent inhibitory effect”. The IC50 ([1]; Influenza A virus, MDCK, 48 h) was < 14.3 µM.

Work on `O=C(N[C@@H](Cc1ccccc1)C(=O)N[C@H](CO)Cc1ccc(F)cc1)c1ccccc1` [Compound 12, N—((S)-1-(((S)-1-(4-fluorophenyl)-3-hydroxypropan-2-yl)amino)-1-oxo-3-phenylpropan-2-yl)benzamide] yielded an IC50 ([1]; Influenza A virus, MDCK, 48 h) of 17.4 µM.
